The nature of series [1]: Selectivity ratio of IC50 for antiproliferative activity against MTAP wild type human HCT-116 cells to IC50 for antiproliferative activity against MTAP deleted human HCT-116 cells. The format is functional.
For series [2], the system named is HCT-116. The experiment in a line: Antiproliferative activity against MTAP deleted human HCT-116 cells assessed as inhibition of cell viability by luminescence based cell titer-glo assay. The format is functional. On the technique in general: In ATP-based viability assays light output follows the ATP content of the culture.
Series [3] deals with HCT-116. The experiment in a line: Antiproliferative activity against MTAP wild type human HCT-116 cells assessed as inhibition of cell viability by luminescence based cell titer-glo assay. Format: functional.
The nature of series [4]: Volume of distribution at steady state in male CD-1 mouse at 5 mg/kg, po or 1 mg/kg, iv measured upto 24 hrs. The settings on record: in vivo. Format: ADME, organism-based.
Series [5] is described as follows: Cmax in male CD-1 mouse at 5 mg/kg, po or 1 mg/kg, iv measured upto 24 hrs. Format: ADME, organism-based. Particulars: in vivo.
Series [6] in a line: AUC (0 to 24 hrs) in male CD-1 mouse at 5 mg/kg, po or 1 mg/kg, iv measured upto 24 hrs. The format is ADME, organism-based. The settings on record: in vivo.
Series [7] can be described thus: Oral bioavailability in male CD-1 mouse at 5 mg/kg or 1 mg/kg, iv measured upto 24 hrs. Format: ADME, organism-based. The settings on record: in vivo.
A short description of series [8]: Volume of distribution at steady state in male Sprague-Dawley rat at 5 mg/kg, po or 1 mg/kg, iv measured upto 24 hrs. The format is ADME, organism-based. Particulars: in vivo.
The nature of series [9]: Cmax in male Sprague-Dawley rat at 5 mg/kg, po or 1 mg/kg, iv measured upto 24 hrs. The format is ADME, organism-based. Particulars: in vivo.
The nature of series [10]: AUC (0 to 24 hrs) in male Sprague-Dawley rat at 5 mg/kg, po or 1 mg/kg, iv measured upto 24 hrs. Format: ADME, organism-based. Particulars: in vivo.
A short description of series [11]: Oral bioavailability in male Sprague-Dawley rat at 5 mg/kg or 1 mg/kg, iv measured upto 24 hrs. Format: ADME, organism-based. Particulars: in vivo.

Some results are limits rather than exact numbers.

As for `Nc1nc2cnc(C(=O)N3CCOC[C@@H]3c3ccc(C(F)(F)F)cc3)cc2c2c1COC2`, the “Ratio IC50” value in [1] was 66.

As usually defined, the IC50 is the concentration that gives 50% inhibition. Consider `CN(C(=O)c1ccc2nc(N)c3c(c2c1)COC3)[C@H]1CCCN(c2ccccc2)C1`, for which the IC50 in [2] was found to be 6060 nM.

In the case of `CN(C(=O)c1ccc2nc(N)c3c(c2c1)COC3)[C@@H]1CCN(c2ccc3cnn(C)c3c2)C1`, the IC50 was determined as 313 nM in series [2] and 630 nM in series [3].

As usually defined, the Cmax is the maximum level reached in the sampled fluid or tissue. Broadly, the AUC is the area under the concentration-time curve, a measure of exposure. A higher AUC goes with high exposure. Broadly, the bioavailability is the share of a dose that reaches the circulation, judged against a reference dose that is usually intravenous. A higher bioavailability goes with much systemic uptake. `Cc1cc2nc(N)c3c(c2cc1C(=O)N(C)[C@@H]1CCN(c2ccc(C#N)cc2)C1)COC3`: the concentration for half-maximal inhibition (IC50) in [2] turned out to be 7 nM; in [3], 1180 nM. Also, the “Ratio IC50” value in [1] came out at 169. Also, the Vdss in series [4] turned out to be 2.84 L/kg; in [8], 1.29 L/kg. The results for the peak concentration (Cmax) in [5] and in [9] were 611 ng/mL and 496 ng/mL, respectively. In addition, the AUC stood at 1720 ng·h/mL in series [6] and 2310 ng·h/mL in [10]. The bioavailability in series [7] was 83.1%; in [11], 46.1%.

For `Cc1cc2cc(C(=O)N(Cc3ccc(C(F)(F)F)cn3)C(C)c3ncccn3)ccc2nc1N` (stereo unspecified), the “Ratio IC50” value in [1] was 31.

`CN(C(=O)c1cc2c3c(c(N)nc2cn1)COC3)[C@@H]1CCN(c2ccc(C#N)cc2)C1`: the 50% inhibitory concentration (IC50) in series [2] stood at 137 nM; in [3] it was 9350 nM.

As for `CN(C(=O)c1ccc2nc(N)c3c(c2c1)COC3)C1CN(c2ccccc2)C1`, in series [2], the IC50 stood at 1590 nM.

As for `Cc1cc(NC(=O)C(=O)N2C[C@@H](C)CC[C@@H]2c2ccc3scnc3c2)cnc1N`, in [1], the “Ratio IC50” value came out at 13.

Take `CN(C(=O)c1ccc2nc(N)c3c(c2c1)COC3)[C@@H]1CCN(c2ccc(C3=CCOCC3)cc2)C1`: the IC50 in series [2] was 451 nM; in series [3] it was greater than 10000 nM.

In the case of `CN(C(=O)c1ccc2nc(N)c3c(c2c1)COC3)[C@@H]1CCN(c2ccc(-c3cnn(C)c3)cc2)C1`, the half-inhibitory concentration (IC50) in [2] is 211 nM; in [3], greater than 10000 nM.

Consider `Nc1nc2ccc(C(=O)N3C[C@@H]4C[C@H]3CN4c3ccccc3)cc2c2c1COC2`, for which the IC50 in [2] stood at 719 nM.

Take `CN(C(=O)c1ccc2nc(N)c3c(c2c1)COC3)[C@@H]1CCN(c2ccc(C3CC3)cc2)C1`: the concentration for half-maximal inhibition (IC50) in series [2] came to 1570 nM.

Values taken from ChEMBL document CHEMBL6087483 (J Med Chem, 2025).
